The conditions of data set [1]: cited from earlier work.
Data set [2] can be described thus: Volume of distribution after i.v. administration (literature). As to conditions: in vivo, iv, Rat, calculated using previously published data ref 17, read-out: Vd ss. The text has this: TABLE 7 Volume of distribution for SCY-078 and echinocandins after i.v. administration | column: Vd ss (liters/kg)^a / Anidulafungin
The conditions of data set [3]: Rabbit, cited from earlier work.
The conditions of data set [4]: Human, cited from earlier work.
For data set [5] the following is noted: Mouse, cited from earlier work.
Data set [6] has as its system C. albicans MY1055. The data set can be described thus: Immediate treatment murine model of disseminated candidiasis.
On the set-up of data set [7]: method as in ref 26 = [26]; 26. Yamato Y , Kaneko H , Hashimoto T , Katashima M , Ishibashi K , Kawamura A , Terakawa M , Kagayama A 2002 Pharmacokinetics of the anti-fungal drug micafungin in mice, rats and dogs, and its in vit. The following applies: Dog, i.v. ref 26; cited from earlier work.
The conditions of data set [8]: Rat, i.v. ref 26; cited from earlier work.

Read-outs that look alike come from different tables or passages of the source. *1 amine or outer side, *2 acyl side, *3 side chain or, on linkers, in order; H or OH if unused. Where a SMILES comes first, the peptide text is derived from it. Bridges are numbered along the chain shown (N, C = ends). [ ]: non-standard residue; d: D form. The star is where a group is joined. hTyr(3S-OH,4S-OH,3'-OSO3H) = N[C@H](C(=O)O)[C@H](O)[C@@H](O)c1ccc(O)c(OS(=O)(=O)O)c1; pTerphenylCO(4''-OnC5H11) = CCCCCOc1ccc(-c2ccc(-c3ccc(C(=O)*)cc3)cc2)cc1; Orn(4R-OH,5R-OH) = O=C([C@H](C[C@@H](O)[C@@H](O)N[*:3])N[*:1])[*:2]; hTyr(3S-OH,4S-OH) = N[C@H](C(=O)O)[C@H](O)[C@@H](O)c1ccc(O)cc1; Pro(3S-OH,4S-Me) = C[C@H]1CN[C@H](C(=O)O)[C@H]1O; X1 = CCCCCOc1ccc(-c2cc(-c3ccc(C(=O)*)cc3)no2)cc1; Gln(3R-OH) = NC(=O)C[C@@H](O)[C@H](N)C(=O)O; Hyp = O=C(O)[C@@H]1C[C@@H](O)CN1

These results are taken from PMC5365645, “Preclinical Pharmacokinetics and Pharmacodynamic Target of SCY-078, a First-in-Class Orally Active Antifungal Glucan Synthesis Inhibitor, in Murine Models of Disseminated Candidiasis” (Antimicrobial Agents and Chemotherapy, 2017).

Take `CCCCCOc1ccc(-c2ccc(-c3ccc(C(=O)N[C@H]4C[C@@H](O)[C@@H](O)NC(=O)[C@@H]5[C@@H](O)[C@@H](C)CN5C(=O)[C@H]([C@@H](C)O)NC(=O)[C@H]([C@H](O)[C@@H](O)c5ccc(O)cc5)NC(=O)[C@@H]5C[C@@H](O)CN5C(=O)[C@H]([C@@H](C)O)NC4=O)cc3)cc2)cc1` [Anidulafungin, anidulafungin] ({pTerphenylCO(4''-OnC5H11)}-[Orn(4R-OH,5R-OH)]T[Hyp][hTyr(3S-OH,4S-OH)]T[Pro(3S-OH,4S-Me)]; lactam 1-C): the Kidney/plasma ratio in data set [1] (after i.v. delivery to rodents ref 17) is 10.7. The Vd in data set [2] is 2.16 L/kg. The Vd ss was 0.93–1.23 ([28]) liters/kg in data set [3] (i.v. ref 28) and 0.5 L/kg in data set [4] (i.v. ref 31).
Turning to `CC[C@H](C)C[C@H](C)CCCCCCCCC(=O)N[C@H]1C[C@@H](O)[C@@H](NCCN)NC(=O)[C@@H]2[C@@H](O)CCN2C(=O)[C@H]([C@H](O)CCN)NC(=O)[C@H]([C@H](O)[C@@H](O)c2ccc(O)cc2)NC(=O)[C@@H]2C[C@@H](O)CN2C(=O)[C@H]([C@@H](C)O)NC1=O` [Caspofungin, caspofungin], the Vd ss in data set [5] (i.v. ref 22) was 0.25 L/kg; in data set [5] (i.v. ref 25) it was 0.45 L/kg; in data set [3] (i.v. ref 25), 0.28 L/kg; in data set [3] (i.v. ref 29), 0.26 L/kg; in data set [4] (i.v. ref 31) it was 0.14 ([31]) liters/kg. Further, the Kidney/plasma ratio result in data set [1] (after i.v. delivery to rodents ref 22) is “approximately 2.9”; in data set [1] (after i.v. delivery to rodents, based on the total radioactivity over 24 h ref 23), 2.8. Also, in data set [6] (administered intraperitoneally twice daily (data not shown)), the “Dose effective in clearing kidney fungal burden” value was at least 0.125 mg/kg.
With `OC(Cn1cncn1)(Cn1cncn1)c1ccc(F)cc1F` [FLU, fluconazole, reference compound], in data set [6] (up to 5 mg/kg p.o. BID), the “Clearance of fungal infection” value is given as “did not result in clearance of fungal infection in any of the animals tested”.
For `CCCCCOc1ccc(-c2cc(-c3ccc(C(=O)N[C@H]4C[C@@H](O)[C@@H](O)NC(=O)[C@@H]5[C@@H](O)[C@@H](C)CN5C(=O)[C@H]([C@H](O)CC(N)=O)NC(=O)[C@H]([C@H](O)[C@@H](O)c5ccc(O)c(OS(=O)(=O)O)c5)NC(=O)[C@@H]5C[C@@H](O)CN5C(=O)[C@H]([C@@H](C)O)NC4=O)cc3)no2)cc1` [Micafungin, micafungin] (X1-[Orn(4R-OH,5R-OH)]T[Hyp][hTyr(3S-OH,4S-OH,3'-OSO3H)][Gln(3R-OH)][Pro(3S-OH,4S-Me)]; lactam 1-C), the Vd ss was 0.38–0.49 ([26]) liters/kg in data set [5] (i.v. ref 26); 0.23–0.25 ([26]) liters/kg in data set [7]; 0.42–0.56 ([26]) liters/kg in data set [8]; 0.313 ([30]) liters/kg in data set [3] (i.v. ref 30); 0.21 to 0.24 L/kg in data set [4] (i.v. ref 31); 0.26 L/kg in data set [4] (i.v. ref 32). In data set [1] (after i.v. delivery to rodents ref 24), the Kidney/plasma ratio is on record as 3.4.

One may read the Vd as the apparent volume that relates the amount in the body to the concentration in plasma or blood.
